In PubChem BioAssay AID248 (DTP/NCI, 2004):
“And” between values parts separate entries of the source, which are not always exact repeats. Equal entries are not always repeated. Inconclusive results and toxic doses are left out.

System: L1210 leukemia ip in BDF1 mice, survival T/C
Test: NCI In Vivo Anticancer Drug Screen. Data for tumor model L1210 Leukemia (intraperitoneal) in B6D2F1 (BDF1) mice
Conditions: endpoint: mean survival time, higher = longer survival
Summary of the method: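 Each compound was tested against a transplantable tumor grown in mice. The endpoint was survival, with treated animals benchmarked against vehicle controls as a simple ratio.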

[1] = dose: 100.0 mg/kg/injection, schedule: Q01DX009 (ip), vehicle: Klucel (hydroxypropylcellulose) (HPC)
[2] = dose: 200.0 mg/kg/injection, schedule: Q01DX009 (ip), vehicle: Klucel (hydroxypropylcellulose) (HPC)
[3] = dose: 400.0 mg/kg/injection, schedule: Q01DX009 (ip), vehicle: Klucel (hydroxypropylcellulose) (HPC)
[4] = dose: 100.0 mg/kg/injection, schedule: Q01DX001 (ip), vehicle: Klucel (hydroxypropylcellulose) (HPC)
[5] = dose: 100.0 mg/kg/injection, schedule: Q01DX009 (ip), vehicle: saline with Tween-80
[6] = dose: 100.0 mg/kg/injection, schedule: Q04DX003 (ip), vehicle: saline with Tween-80
[7] = dose: 200.0 mg/kg/injection, schedule: Q01DX001 (ip), vehicle: Klucel (hydroxypropylcellulose) (HPC)
[8] = dose: 200.0 mg/kg/injection, schedule: Q01DX009 (ip), vehicle: saline with Tween-80
[9] = dose: 200.0 mg/kg/injection, schedule: Q04DX003 (ip), vehicle: saline with Tween-80
[10] = dose: 400.0 mg/kg/injection, schedule: Q01DX009 (ip), vehicle: saline with Tween-80
[11] = dose: 400.0 mg/kg/injection, schedule: Q04DX003 (ip), vehicle: saline with Tween-80
[12] = dose: 50.0 mg/kg/injection, schedule: Q04DX003 (ip), vehicle: saline
[13] = dose: 100.0 mg/kg/injection, schedule: Q04DX003 (ip), vehicle: saline
[14] = dose: 100.0 mg/kg/injection, schedule: Q04DX003 (ip), vehicle: Klucel (hydroxypropylcellulose) (HPC)
[15] = dose: 200.0 mg/kg/injection, schedule: Q04DX003 (ip), vehicle: Klucel (hydroxypropylcellulose) (HPC)
[16] = dose: 50.0 mg/kg/injection, schedule: Q01DX009 (ip), vehicle: Klucel (hydroxypropylcellulose) (HPC)
[17] = dose: 400.0 mg/kg/injection, schedule: Q04DX003 (ip), vehicle: Klucel (hydroxypropylcellulose) (HPC)

For `CNc1nnnn1-c1ccccc1`, the T/C (dose: 100.0 mg/kg/injection, schedule: Q01DX001 (ip), vehicle: acetone) was 95 % of control, the T/C (dose: 200.0 mg/kg/injection, schedule: Q01DX001 (ip), vehicle: acetone) was 100 % of control and the T/C (dose: 400.0 mg/kg/injection, schedule: Q01DX001 (ip), vehicle: acetone) was 95 % of control.
With `CC1C2COCC2CC2OC21` (stereo not drawn) the T/C (dose: 50.0 mg/kg/injection, schedule: Q01DX001 (ip), vehicle: saline sonified) was 124 % of control, the T/C (dose: 100.0 mg/kg/injection, schedule: Q01DX001 (ip), vehicle: saline sonified) was 109 % of control and the T/C (dose: 200.0 mg/kg/injection, schedule: Q01DX001 (ip), vehicle: saline sonified) was 102 % of control.
`O=C(Nc1cccc(C(=O)O)c1)Nc1cccc(Cl)c1Cl` was tested, and the T/C [1] was 98 % of control, the T/C [2] was 95 % of control and the T/C [3] was 105 % of control.
`O=C1OCCN1c1ccccc1` was tested, and the T/C [4] was 90 % of control, the T/C [5] was 93 % of control and the T/C [6] was 101 % of control. For the same compound, the T/C [7] was 87 % of control, the T/C [8] was 90 % of control and the T/C [9] was 113 % of control. For the same compound, the T/C (dose: 400.0 mg/kg/injection, schedule: Q01DX001 (ip), vehicle: Klucel (hydroxypropylcellulose) (HPC)) was 100 % of control, the T/C [10] was 93 % of control and the T/C [11] was 95 % of control.
For `Cc1ccc(S(=O)(=O)N/N=C(\CSc2ccc([N+](=O)[O-])cc2)c2ccccc2)cc1`, the T/C [6] was 87 % of control, the T/C [9] was 92 % of control and the T/C [11] was 88 % of control.
`O=C(N/N=C/c1ccc(Cl)cc1Cl)c1cccc([N+](=O)[O-])c1` was tested, and the T/C [1] was 100 % of control, the T/C [2] was 100 % of control and the T/C [3] was 94 % of control.
`CN1CCC(c2ccccc2)(c2ccccc2)OC1` was tested, and the T/C [6] was 94 % of control.
`NNCCc1ccccc1` was tested, and the T/C (dose: 6.25 mg/kg/injection, schedule: Q01DX009 (ip), vehicle: saline) was 105 % of control, the T/C (dose: 12.5 mg/kg/injection, schedule: Q01DX009 (ip), vehicle: saline) was 101 % of control and the T/C (dose: 25.0 mg/kg/injection, schedule: Q01DX009 (ip), vehicle: saline) was 95 % of control. For the same compound, the T/C (dose: 25.0 mg/kg/injection, schedule: Q04DX003 (ip), vehicle: saline) was 120 % of control, the T/C (dose: 50.0 mg/kg/injection, schedule: Q01DX009 (ip), vehicle: saline) was 104 % of control and the T/C [12] was 106 % of control. For the same compound, the T/C [13] was 111 % of control.
With `CCOC(=O)c1sc(NC(C)=O)c(C(=O)OCC)c1C` the T/C (dose: 100.0 mg/kg/injection, schedule: Q01DX009 (ip), vehicle: saline) was 96 % of control, the T/C [6] was 98 % of control and the T/C (dose: 200.0 mg/kg/injection, schedule: Q01DX009 (ip), vehicle: saline) was 101 % of control. For the same compound, the T/C [9] was 114 % of control, the T/C (dose: 400.0 mg/kg/injection, schedule: Q01DX009 (ip), vehicle: saline) was 101 % of control and the T/C [11] was 96 % of control.
With `COc1ccccc1NC(=O)Nc1cccc(C(C)=O)c1` the T/C [5] was 93 % of control, the T/C [6] was 97 % of control and the T/C [8] was 90 % of control. The T/C [9] was 100 % of control, the T/C [10] was 100 % of control and the T/C [11] was 96 % of control.
`CC(C)=NNC(=O)CC#N` was tested, and the T/C [4] was 86 % of control and the T/C [7] was 94 % of control.
`Nc1nc(=S)c2ncn(C3OC(COC(=O)c4ccccc4)C(OC(=O)c4ccccc4)C3OC(=O)c3ccccc3)c2[nH]1` (stereo not drawn) was tested, and the T/C (dose: 0.1 mg/kg/injection, schedule: Q01DX009 (ip), vehicle: saline) was 104 % of control, the T/C (dose: 0.3 mg/kg/injection, schedule: Q01DX009 (ip), vehicle: saline) was 118 % of control and the T/C (dose: 0.6 mg/kg/injection, schedule: Q01DX009 (ip), vehicle: saline) was 118 % of control. The T/C (dose: 5.0 mg/kg/injection, schedule: Q01DX009 (ip), vehicle: saline) was 159 % of control, the T/C (dose: 29.0 mg/kg/injection, schedule: Q01DX Z (ip), vehicle: methylcellulose (MC)) was 116 % of control and the T/C (dose: 45.0 mg/kg/injection, schedule: Q01DX009 (ip), vehicle: saline) was 164 % of control. The T/C (dose: 100.0 mg/kg/injection, schedule: Q01DX Z (ip), vehicle: methylcellulose (MC)) was 153 % of control, the T/C (dose: 175.0 mg/kg/injection, schedule: Q01DX009 (ip), vehicle: saline) was 98 % of control and the T/C (dose: 265.0 mg/kg/injection, schedule: Q01DX001 (ip), vehicle: saline) was 118 % of control. For the same compound, the T/C (dose: 400.0 mg/kg/injection, schedule: Q01DX001 (ip), vehicle: saline) was 86 % of control.
For `O=C1C(N2CCCC2)=C(N2CC2)C(=O)C(N2CCCC2)=C1N1CC1`, the T/C (dose: 0.25 mg/kg/injection, schedule: Q01DX009 (ip), vehicle: saline) was 94 % of control and 119 % of control, the T/C (dose: 0.39 mg/kg/injection, schedule: Q04DX003 (ip), vehicle: saline) was 108 % of control and the T/C (dose: 0.5 mg/kg/injection, schedule: Q01DX009 (ip), vehicle: saline) was 101 % of control and 103 % of control. For the same compound, the T/C (dose: 0.78 mg/kg/injection, schedule: Q04DX003 (ip), vehicle: saline) was 96 % of control, the T/C (dose: 1.0 mg/kg/injection, schedule: Q01DX009 (ip), vehicle: saline) was 106 % of control and 118 % of control and the T/C (dose: 1.56 mg/kg/injection, schedule: Q04DX003 (ip), vehicle: saline) was 115 % of control. For the same compound, the T/C (dose: 2.0 mg/kg/injection, schedule: Q01DX001 (ip), vehicle: saline) was 108 % of control, the T/C (dose: 2.0 mg/kg/injection, schedule: Q01DX009 (ip), vehicle: saline) was 121 % of control and 124 % of control and the T/C (dose: 4.0 mg/kg/injection, schedule: Q01DX001 (ip), vehicle: saline) was 97 % of control. For the same compound, the T/C (dose: 8.0 mg/kg/injection, schedule: Q01DX001 (ip), vehicle: saline) was 87 % of control and the T/C (dose: 12.5 mg/kg/injection, schedule: Q04DX003 (ip), vehicle: saline) was 92 % of control.
With `CCC1(CC)NC(=O)N(CCO)C1=O` the T/C [12] was 110 % of control, the T/C [13] was 95 % of control and the T/C (dose: 200.0 mg/kg/injection, schedule: Q04DX003 (ip), vehicle: saline) was 106 % of control. The T/C (dose: 400.0 mg/kg/injection, schedule: Q04DX003 (ip), vehicle: saline) was 105 % of control.
In the case of `Cc1no[n+]([O-])c1C(N)=O`, the T/C (dose: 100.0 mg/kg/injection, schedule: Q04DX002 (ip), vehicle: Klucel (hydroxypropylcellulose) (HPC)) was 98 % of control, the T/C (dose: 200.0 mg/kg/injection, schedule: Q04DX002 (ip), vehicle: Klucel (hydroxypropylcellulose) (HPC)) was 95 % of control and the T/C (dose: 400.0 mg/kg/injection, schedule: Q04DX002 (ip), vehicle: Klucel (hydroxypropylcellulose) (HPC)) was 98 % of control.
In the case of `N/C(=N\O)c1cn(C2OC(CO)C(O)C2O)c2nc(Cl)nc(N)c12` (stereo not drawn), the T/C (dose: 50.0 mg/kg/injection, schedule: Q01DX001 (ip), vehicle: Klucel (hydroxypropylcellulose) (HPC)) was 109 % of control and the T/C [4] was 115 % of control.
In the case of `COc1cc(C)c(Cc2cnc(N)nc2N)cc1OC`, the T/C [14] was 97 % of control and the T/C [15] was 89 % of control.
`Cc1cc(C)nc(NC(=O)COc2ccc(Cl)cc2)c1` was tested, and the T/C [16] was 97 % of control, the T/C [1] was 100 % of control and the T/C [14] was 101 % of control. The T/C [2] was 93 % of control and the T/C [15] was 97 % of control.
`CC1CN=C(c2ccc(N)cc2)S1` (stereo not drawn) was tested, and the T/C (dose: 87.0 mg/kg/injection, schedule: Q04DX003 (ip), vehicle: Klucel (hydroxypropylcellulose) (HPC)) was 94 % of control and the T/C (dose: 175.0 mg/kg/injection, schedule: Q04DX003 (ip), vehicle: Klucel (hydroxypropylcellulose) (HPC)) was 105 % of control.
`O=C(O)/C(=C\CCCC/C=C(\CCO)C(=O)O)CCO` was tested, and the T/C [1] was 102 % of control, the T/C [14] was 94 % of control and the T/C [2] was 99 % of control. The T/C [15] was 102 % of control, the T/C [3] was 102 % of control and the T/C [17] was 96 % of control.
With `COC(=O)C(C)C(=O)O` (stereo not drawn) the T/C (dose: 100.0 mg/kg/injection, schedule: Q04DX002 (ip), vehicle: saline) was 90 % of control, the T/C (dose: 200.0 mg/kg/injection, schedule: Q04DX002 (ip), vehicle: saline) was 97 % of control and the T/C (dose: 400.0 mg/kg/injection, schedule: Q04DX002 (ip), vehicle: saline) was 90 % of control.
In the case of `Cc1ccccc1-c1c2ccccc2c2ccccc2[n+]1[O-]`, the T/C [16] was 101 % of control, the T/C [1] was 101 % of control and the T/C [2] was 108 % of control.
For `O=C(c1ccccc1)C(Br)c1ccc([N+](=O)[O-])cc1` (stereo not drawn), the T/C [1] was 99 % of control, the T/C [14] was 105 % of control and the T/C [2] was 105 % of control. The T/C [15] was 108 % of control, the T/C [3] was 95 % of control and the T/C [17] was 103 % of control.
